Measured values from patent publication US20110009497A1, “DRUG-CONTAINING COMPOSITION” (FUJIFILM CORPORATION, priority 2008, published 2011).

Assays:
[1] = target: T1, human vitamin D3 receptor (His-tag fusion protein) (Homo sapiens, UniProt P11473); assay: Elution by human serum of vitamin D3 bound to His-tag fusion vitamin D3 receptor protein immobilised on Ni-column, HPLC quantification; type: binding; details: carrier His-tag fusion vitamin D3 receptor protein on Ni-column; 20 ml human serum then 10 ml solution A at 0.1 ml/min
T1 construct: made in house; host or cells: Escherichia coli BL21 (DE3) Codon-plus, vector pQE30 Xa (QIAGEN)
T1 sequence (P11473 1-427): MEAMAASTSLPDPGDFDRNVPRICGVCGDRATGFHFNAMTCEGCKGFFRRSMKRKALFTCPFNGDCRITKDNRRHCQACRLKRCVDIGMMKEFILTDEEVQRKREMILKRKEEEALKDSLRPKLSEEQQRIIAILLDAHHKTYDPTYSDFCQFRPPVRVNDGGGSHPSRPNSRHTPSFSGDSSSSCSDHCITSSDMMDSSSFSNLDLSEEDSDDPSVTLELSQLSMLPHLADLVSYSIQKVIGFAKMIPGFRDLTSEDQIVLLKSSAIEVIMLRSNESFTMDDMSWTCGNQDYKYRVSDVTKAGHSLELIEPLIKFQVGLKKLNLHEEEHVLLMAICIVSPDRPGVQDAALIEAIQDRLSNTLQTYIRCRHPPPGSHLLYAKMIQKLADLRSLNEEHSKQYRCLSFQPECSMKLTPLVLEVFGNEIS
Protocol: (§1) For culture, an LB (Luria-Bertani) medium containing 100 μg/ml ampicillin was used. Preculture was carried out with the use of a 300-mL LB medium contained in a 500-mL Erlenmeyer flask at 37° C. Then, for main culture, 30 mL of the preculture solution was added to a 1.5-L LB medium (containing 100 μg/ml ampicillin) contained in a 3-L baffled Erlenmeyer flask and subjected to shake culture at 37° C. so as to result in 0.6 OD600. Thereafter, IPTG was added thereto to a final concentration of 0.5 mM for expression induction, followed by overnight shake culture at 30° C. Subsequently, cells were collected by centrifugation and washed. The obtained bacterial cells were suspended in 200 mM NaCl, 50 mM sodium phosphate buffer, and 10 mM imidazole (pH 8.0), followed by ultrasonic disintegration for 5 minutes and centrifugation at 44,200×g for 30 minutes. Thus, the supernatant was obtained. The obtained supernatant was introduced at a flow rate of 0.1 ml/min into an Ni-column (Ni-NTA His-Bind Resin: Novagen; column volume: 50 ml) that had been preliminarily equilibrated with a solution A (300 mM NaCl, 50 mM sodium phosphate buffer, 20 mM imidazole, pH 8.0) for immobilization. […]

[2] = target: T2, human albumin (His-tag fusion protein) (Homo sapiens, UniProt P02768); assay: Elution by human serum of vitamin D3 bound to His-tag fusion albumin immobilised on Ni-column, HPLC quantification (Comparative Example 1); type: binding; details: carrier His-tag fusion albumin on Ni-column; human serum 20 ml at 0.1 ml/min, then buffer
T2 construct: made in house; host or cells: Escherichia coli BL21 (DE3) Codon-plus, vector pQE30 Xa (QIAGEN)
Protocol: as §1, with “A human albumin sequence was expressed with the use of Escherichia coli BL21 (DE3) Codon-plus as a His-tag fusion protein (using a vector (pQE30 Xa; QIAGEN)). For” for “For”

[3] = test system: osteoporosis model rats (ovariectomized aged rats); assay: Bone regeneration in osteoporosis model rats (ovariectomized aged rats); type: in vivo, rat; details: calcitriol dissolved with vitamin D3 receptor carrier protein; i.v. 3 times per week, 0.3 μg/kg; four months later
Protocol: The resultant was allowed to stand still overnight at 22° C. and eluted with a solution A as in the case of Example 1. The eluate was introduced into a benzamidine column (GE Healthcare Bioscience; HiTrap Benzamidine FF (high sub) column) in a general purification step, during which a high-purity vitamin D3 receptor protein was purified. Accordingly, a drug carrier was obtained.
The obtained liquid was administered 3 times per week via intravenous injection to osteoporosis model rats (ovariectomized aged rats) such that the calcitriol concentration was maintained at 0.3 μg/kg.

T2 sequence (P02768 25-609): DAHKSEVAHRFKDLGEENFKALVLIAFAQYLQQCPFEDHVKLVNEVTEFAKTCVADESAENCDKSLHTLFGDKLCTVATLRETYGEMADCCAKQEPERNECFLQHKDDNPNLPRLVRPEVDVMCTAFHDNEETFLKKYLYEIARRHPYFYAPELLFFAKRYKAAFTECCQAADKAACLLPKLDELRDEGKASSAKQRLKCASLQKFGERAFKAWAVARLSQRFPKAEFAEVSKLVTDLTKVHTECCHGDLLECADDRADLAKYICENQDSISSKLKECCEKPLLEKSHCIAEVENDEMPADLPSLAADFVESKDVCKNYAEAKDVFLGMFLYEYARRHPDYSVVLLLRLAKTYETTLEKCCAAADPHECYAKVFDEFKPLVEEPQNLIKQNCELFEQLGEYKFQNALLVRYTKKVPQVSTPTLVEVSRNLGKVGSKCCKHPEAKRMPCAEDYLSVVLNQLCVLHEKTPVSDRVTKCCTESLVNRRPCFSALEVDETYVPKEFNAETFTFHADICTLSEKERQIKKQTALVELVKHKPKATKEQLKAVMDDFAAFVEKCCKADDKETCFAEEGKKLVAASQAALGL

Compound | amount of vitamin D3 eluted from the column, of the total amount of bound vitamin [1] | amount of vitamin D3 eluted from the column, of the total amount of bound vitamin [2] | induction of bone regeneration [3]
C=C1CC[C@H](O)C/C1=C/C=C1\CCC[C@]2(C)[C@@H]([C@H](C)CCCC(C)C)CC[C@@H]12 [Vitamin D3, vitamin D3] | approximately 5% | approximately 70% | 
C=C1/C(=C\C=C2/CCC[C@]3(C)[C@@H]([C@H](C)CCCC(C)(C)O)CC[C@@H]23)C[C@@H](O)C[C@@H]1O [calcitriol, 1α,25-dihydroxyvitamin D3] |  |  | induction of bone regeneration in the rats was confirmed
